Measured values as given in ChEMBL document CHEMBL1129258, “Synthesis and structure-activity relationships of 2-pyridones: a novel series of potent DNA gyrase inhibitors as antibacterial agents” (J Med Chem, 1996).
In brackets after ≈: the same amount, converted by molar mass.

Key:
Pseudomonas aeruginosa = test: In vivo efficacy against Pseudomonas aeruginosa 5007 following p.o. administration.
Streptococcus pyogenes = test: In vitro antibacterial activity against gram-positive organism Streptococcus pyogenes EES61; assay type: functional; conditions: Streptococcus pyogenes; read-out: MIC
[1] = molecular target: T1, DNA gyrase (Escherichia coli) (UniProt P0AES6+P0AES4); test: In vitro antibacterial activity against gram-positive organism Streptococcus bovis A-5169; assay type: functional; conditions: Streptococcus equinus
[2] = molecular target: T1, DNA gyrase (Escherichia coli); test: In vitro antibacterial activity against gram-negative organism […] ATCC 13048; assay type: functional; conditions: Enterobacter aerogenes
[3] = molecular target: T1, DNA gyrase (Escherichia coli); test: In vitro antibacterial activity against gram-positive organism Enterococcus faecium ATCC 8043; assay type: functional
in vivo [4] = conditions: rat, plasma, po, 5 mg/kg
in vivo [5] = conditions: rat, po, 5 mg/kg
Description: Oral bioavailability in rat (dose 5 mg/kg)

[6] = In vitro antibacterial activity against gram-negative organism Pseudomonas aeruginosa 5007; assay type: functional; conditions: Pseudomonas aeruginosa; read-out: MIC
[7] = molecular target: T2, DNA gyrase (Staphylococcus aureus) (UniProt P0A0K8+P20831); test: In vitro antibacterial activity against gram-positive organism Staphylococcus aureus NCTC-10649M; assay type: functional
[8] = Maximum plasma concentration in rats after an oral dose of 5 mg/kg; conditions: rat
[9] = molecular target: T2, DNA gyrase (Staphylococcus aureus); test: In vivo efficacy against Staphylococcus aureus NCTC-10649M after oral administration; assay type: functional, organism-based
[10] = In vitro antibacterial activity against gram-negative organism Pseudomonas aeruginosa DPHD-2862; assay type: functional; conditions: Pseudomonas aeruginosa; read-out: MIC
[11] = molecular target: T1, DNA gyrase (Escherichia coli); conditions: Escherichia coli K-12
Description: Concentration which causes 50% of the gyrase (Escherichia coli H560)-mediated maximal DNA cleavage.

[12] = molecular target: T1, DNA gyrase (Escherichia coli); test: In vitro antibacterial against gram-negative organism Escherichia coli JUHL; assay type: functional; conditions: Escherichia coli K-12
[13] = molecular target: T1, DNA gyrase (Escherichia coli); test: In vivo efficacy against Escherichia coli JUHL after oral administration; assay type: functional, organism-based; conditions: Escherichia coli K-12
[14] = molecular target: T1, DNA gyrase (Escherichia coli); test: In vivo efficacy against Escherichia coli JUHL by subcutaneous administration; assay type: functional, organism-based; conditions: Escherichia coli K-12
[15] = molecular target: T2, DNA gyrase (Staphylococcus aureus); test: In vitro antibacterial activity against gram-positive organism Staphylococcus aureus ATCC 6538p; assay type: functional
[16] = In vivo efficacy against Pseudomonas aeruginosa 5007 after subcutaneous administration; assay type: functional; conditions: Pseudomonas aeruginosa, sc; read-out: ED50
[17] = molecular target: T2, DNA gyrase (Staphylococcus aureus); test: In vivo efficacy against Staphylococcus aureus NCTC-10649M after subcutaneous administration; assay type: functional, organism-based
[18] = molecular target: T1, DNA gyrase (Escherichia coli); test: In vitro antibacterial activity against gram-negative organism Klebsiella pneumoniae ATCC 8045; assay type: functional
[19] = molecular target: T1, DNA gyrase (Escherichia coli); test: In vitro antibacterial activity against gram-negative organism Prov. stuartii CMX-640; assay type: functional; conditions: Providencia stuartii
[20] = molecular target: T2, DNA gyrase (Staphylococcus aureus); test: In vitro antibacterial activity against gram-positive organism Staphylococcus aureus 1775; assay type: functional
Enterococcus faecalis = test: Inhibitory activity against enterococcus faecalis Van B; assay type: functional
Enterococcus faecium = test: Inhibitory activity against enterococcus faecium Van A; assay type: functional
Streptococcus pneumoniae [21] = test: In vivo efficacy against Strep. administered; assay type: functional
Streptococcus pneumoniae [22] = test: In vivo efficacy against Strep. administration; assay type: functional
physchem = conditions: phosphate buffer, pH 7.4
Description: Aqueous solubility in pH 7.4 phosphate buffer (0.05 M) at 37 degree C

Escherichia coli = test: In vivo efficacy against Escherichia coli JUHL by orally administered.; assay type: functional; conditions: po
[23] = Streptococcus pneumoniae, read-out: ED50

SMILES	ED50 (Pseudomonas aeruginosa) [mg/kg]	MIC (Streptococcus pyogenes) [µg/mL]	MIC [1] [µg/mL]	MIC [2] [µg/mL]	MIC [3] [µg/mL]	MIC [6] [µg/mL]	MIC [7] [µg/mL]	ED50 [9] [mg/kg]	MIC [10] [µg/mL]	MIC [12] [µg/mL]	ED50 [13] [mg/kg]	ED50 [14] [mg/kg]	MIC [15] [µg/mL]	ED50 [17] [mg/kg]	MIC [18] [µg/mL]	MIC [19] [µg/mL]	MIC [20] [µg/mL]	CC50 [11] [µg/mL]	ED50 [16] [mg/kg]	ED50 (Streptococcus pneumoniae [22]) [mg/kg]	other results
CN[C@H](CC(C)C)C(=O)N[C@H]1C(=O)N[C@@H](CC(N)=O)C(=O)N[C@H]2C(=O)N[C@H]3C(=O)N[C@H](C(=O)N[C@H](C(=O)O)c4cc(O)cc(O)c4-c4cc3ccc4O)[C@H](O)c3ccc(c(Cl)c3)Oc3cc2cc(c3O[C@@H]2O[C@H](CO)[C@@H](O)[C@H](O)[C@H]2O[C@H]2C[C@](C)(N)[C@H](O)[C@H](C)O2)Oc2ccc(cc2Cl)[C@H]1O [VANCOMYCIN]	–	–	–	–	–	–	–	–	–	–	–	–	–	–	–	–	–	–	–	–	MIC (Enterococcus faecalis): 32 µg/mL (≈ 22.1 µM); MIC (Enterococcus faecium): > 128 µg/mL
Cc1c(N2C[C@@H](N)[C@@H](C)C2)c(F)cn2c(=O)c(C(=O)O)cc(C3CC3)c12	–	0.05 (≈ 0.139 µM)	0.02 (≈ 0.0556 µM)	0.02 (≈ 0.0556 µM)	0.05 (≈ 0.139 µM)	0.1 (≈ 0.278 µM)	0.02 (≈ 0.0556 µM)	–	1.56 (≈ 4.34 µM)	0.005 (≈ 0.0139 µM)	–	–	0.02 (≈ 0.0556 µM)	–	0.005 (≈ 0.0139 µM)	0.78 (≈ 2.17 µM)	0.78 (≈ 2.17 µM)	0.06 (≈ 0.167 µM)	–	–	half-life (in vivo [4]): 2.1 h; bioavailability (in vivo [5]): 23%; Cmax [8]: 170 ng/mL
CC(NC1CCN(c2nc3c(-c4ccc(F)cc4F)cc(C(=O)O)c(=O)n3cc2F)C1)C(=O)O (stereo not drawn)	68.8	–	–	–	–	–	–	14.4	–	–	16.6	< 2.5	–	2.7	–	–	–	–	34.4	79.8	ED50 (Streptococcus pneumoniae [22]; [23]): 164 mg/kg
Cc1c(N2C[C@@H]3[C@@H](N)[C@@H]3C2)c(F)cn2c(=O)c(C(=O)O)cc(C3CC3)c12	> 50	0.1 (≈ 0.28 µM)	0.1 (≈ 0.28 µM)	0.02 (≈ 0.056 µM)	0.1 (≈ 0.28 µM)	0.2 (≈ 0.56 µM)	0.02 (≈ 0.056 µM)	14.6	6.2 (≈ 17.3 µM)	0.01 (≈ 0.028 µM)	> 10	1.4	0.02 (≈ 0.056 µM)	4.1	0.01 (≈ 0.028 µM)	0.78 (≈ 2.18 µM)	1.56 (≈ 4.37 µM)	0.3 (≈ 0.839 µM)	18	6.7	–
Cc1c(N2C[C@H]3CCCN[C@H]3C2)c(F)cn2c(=O)c(C(=O)O)cc(C3CC3)c12 (single isomer, unassigned)	> 50	0.05 (≈ 0.13 µM)	0.05 (≈ 0.13 µM)	0.05 (≈ 0.13 µM)	0.1 (≈ 0.259 µM)	0.78 (≈ 2.02 µM)	0.05 (≈ 0.13 µM)	29.3	12.5 (≈ 32.4 µM)	0.05 (≈ 0.13 µM)	–	> 1	0.05 (≈ 0.13 µM)	6.1	0.005 (≈ 0.013 µM)	1.56 (≈ 4.05 µM)	0.78 (≈ 2.02 µM)	–	> 8	–	ED50 (Streptococcus pneumoniae [21]; [23]): > 8 mg/kg; ED50 (Streptococcus pneumoniae [22]; [23]): 32.2 mg/kg

Further lines, with some results ahead:

ED50 (Pseudomonas aeruginosa) [mg/kg]	MIC (Streptococcus pyogenes) [µg/mL]	MIC [1] [µg/mL]	MIC [2] [µg/mL]	MIC [3] [µg/mL]	MIC [6] [µg/mL]	MIC [7] [µg/mL]	ED50 [9] [mg/kg]	MIC [10] [µg/mL]	MIC [12] [µg/mL]	ED50 [13] [mg/kg]	ED50 [14] [mg/kg]	MIC [15] [µg/mL]	ED50 [17] [mg/kg]	MIC [18] [µg/mL]	MIC [19] [µg/mL]	MIC [20] [µg/mL]	SMILES	CC50 [11] [µg/mL]	ED50 [16] [mg/kg]	ED50 (Streptococcus pneumoniae [22]) [mg/kg]	other results
6.2	0.05 (≈ 0.145 µM)	0.1 (≈ 0.29 µM)	0.01 (≈ 0.029 µM)	0.05 (≈ 0.145 µM)	0.05 (≈ 0.145 µM)	0.02 (≈ 0.0579 µM)	< 3.1	1.56 (≈ 4.52 µM)	0.005 (≈ 0.0145 µM)	1	0.3	0.01 (≈ 0.029 µM)	0.9	0.005 (≈ 0.0145 µM)	0.2 (≈ 0.579 µM)	1.56 (≈ 4.52 µM)	Cc1c(N2CC[C@@H](N)C2)c(F)cn2c(=O)c(C(=O)O)cc(C3CC3)c12	0.15 (≈ 0.434 µM)	2.4	–	half-life (in vivo [4]): 1.1 h; bioavailability (in vivo [5]): 10%; Cmax [8]: 80 ng/mL
13	< 0.001	< 0.001	0.01 (≈ 0.0268 µM)	< 0.001	0.05 (≈ 0.134 µM)	< 0.001	7.2	1.56 (≈ 4.18 µM)	< 0.001	3.3	0.5	< 0.001	< 0.2	0.005 (≈ 0.0134 µM)	0.2 (≈ 0.536 µM)	0.05 (≈ 0.134 µM)	Cc1c(N2CC[C@@H]([C@H](C)N)C2)c(F)cn2c(=O)c(C(=O)O)cc(C3CC3)c12	0.3 (≈ 0.803 µM)	1	< 3.1	ED50 (Streptococcus pneumoniae [21]): < 1.3 mg/kg
68.8	–	–	–	–	–	–	3	–	–	14.3	< 2.5	–	2.8	–	–	–	CC(NC(=O)C(C)NC1CCN(c2nc3c(-c4ccc(F)cc4F)cc(C(=O)O)c(=O)n3cc2F)C1)C(=O)O (stereo not drawn)	–	14.8	49.7	solubility (physchem): 1000 µg/mL (≈ 1830 µM); ED50 (Streptococcus pneumoniae [22]; [23]): 140 mg/kg
7.2	0.05 (≈ 0.139 µM)	0.1 (≈ 0.278 µM)	0.02 (≈ 0.0556 µM)	0.1 (≈ 0.278 µM)	0.2 (≈ 0.556 µM)	0.02 (≈ 0.0556 µM)	< 3.1	1.56 (≈ 4.34 µM)	0.005 (≈ 0.0139 µM)	–	0.7	0.02 (≈ 0.0556 µM)	0.9	0.005 (≈ 0.0139 µM)	0.39 (≈ 1.09 µM)	1.56 (≈ 4.34 µM)	CNC1CCN(c2c(F)cn3c(=O)c(C(=O)O)cc(C4CC4)c3c2C)C1 (stereo not drawn)	0.08 (≈ 0.223 µM)	2.8	–	MIC (Enterococcus faecalis): 0.06 µg/mL (≈ 0.167 µM); MIC (Enterococcus faecium): 0.5 µg/mL (≈ 1.39 µM); ED50 (Escherichia coli): 1.1 mg/kg
